Drawing on patent publication US10561733B2, “Process for producing nanoparticles laden with active ingredient” (Merck Patent GmbH, priority 2012, dated 2020), this text covers visual solubility for one compound.

The data set is described as follows: Visual solubility in organic solvent on successive addition of water. Type of data set: physicochemical. To be noted: 1 mg/100 μl in THF, ACN, acetone, DMSO, DMF, methanol, ethanol; 10 μl water added successively until precipitation. On the procedure: If the active compound is insoluble in an organic solvent, this solvent is less suitable for the production of nanoparticles. If a clear solution is formed, in each case equal defined amounts of aqueous solvent are added stepwise and mixed in each case until precipitation of the active compound is visible after addition and mixing (visual solubility). The assessment of visual solubility is carried out visually in a suitable container, preferably in a glass tube having a small diameter, for example as are customary in gas chromatography (diameter of 0.5 cm, height 3 cm), under cold light, which preferably radiates upward, against a dark surface, preferably against a black surface, as background. A diagrammatic representation of the procedure is depicted in FIG. 1.
For loading experiments, the active compounds dexamethasone and 5-[2-(2-fluorophenyl)-1,8-naphthyridin-4-yl]-2,6-naphthyridin-1-ylamine (also called active compound B below) were used. For solvent selection, the active compounds were each dissolved in the following solvents with a concentration of 1 mg/100 μl: tetrahydrofuran (THF), acetonitrile (ACN), acetone, dimethyl sulfoxide (DMSO), dimethylformamide (DMF), methanol, ethanol. Additionally, 0.1% of trifluoroacetic acid (v/v) were added to each organic solution of active compound B in order to establish an apparent “pH”. […]

Each structure is given as a SMILES string.

In the case of `C[C@@H]1C[C@H]2[C@@H]3CCC4=CC(=O)C=C[C@]4(C)[C@@]3(F)[C@@H](O)C[C@]2(C)[C@@]1(O)C(=O)CO` [dexamethasone], the visual solubility result was “increased visual solubility in tetrahydrofuran”.
